Strand notation (5' to 3'): a small letter for the sugar, then the base; units joined by * are phosphorothioate-linked, units joined directly phosphodiester-linked; [ ] holds rarer units or linkages, { } end groups; capitals alone tell only the bases. k = constrained ethyl (cEt); [5mC] = 5-methylcytosine; d = 2'-deoxy (DNA)

The first data set deals with Yap1 mRNA. The data set is described as follows: Antisense inhibition of human Yap1 in A-431 cells by cEt gapmers, single dose (Example 3, RTS36584). Type of data set: cell-based. Conditions: Table 9; A-431 cells, 5,000 cells per well, free uptake, 2,000 nM, approximately 48 hours; RTS36584; normalized to RIBOGREEN; Yap1 mRNA relative to untreated control cells. The method in brief: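 Free uptake, 2,000 nM, ~48 h, A-431 cells. Gapmers: 16-mer 3-10-3 cEt wings, PS backbone, 5-MeC. Readout qRT-PCR, RiboGreen-normalized, % UTC.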
“958761 (antisense kA*kG*kT*d[5mC]*dT*d[5mC]*dA*dA*d[5mC]*dA*dA*d[5mC]*d[5mC]*kT*kT*k[5mC]) [Compound 958761]”: the “YAP1 (% UTC)” value is on record as 7 % UTC.

“958766 (antisense kT*kA*kA*d[5mC]*dA*dT*dA*dT*dG*dT*d[5mC]*dT*dA*k[5mC]*kT*k[5mC]) [Compound 958766]”: the “YAP1 (% UTC)” value worked out at 23 % UTC.

Take “958771 (antisense k[5mC]*kT*kA*d[5mC]*dA*dG*dA*d[5mC]*dG*dA*dA*dT*dT*k[5mC]*k[5mC]*kA) [Compound 958771]”: the “YAP1 (% UTC)” value was determined as 18 % UTC.

In the case of “958776 (antisense kG*kG*kT*dA*d[5mC]*dT*d[5mC]*dT*d[5mC]*d[5mC]*dT*dT*d[5mC]*kA*kG*kA) [Compound 958776]”, the “YAP1 (% UTC)” value is 94 % UTC.

The data set is the same for the next values; noted with them: Table 10; A-431 cells, 5,000 cells per well, free uptake, 2,000 nM oligonucleotide, approx. 48 hours; primer probe set RTS36584; Yap1 mRNA normalized to RIBOGREEN, percent of untreated control.
Consider “958762 (antisense kG*kA*kT*dT*dA*dG*dA*dG*dG*dA*d[5mC]*dT*d[5mC]*kA*kT*kT) [Compound 958762]”, for which the “YAP1 (% UTC)” value was 16 % UTC.

For the substance “958767 (antisense kA*k[5mC]*kG*dA*dA*dT*dA*dA*dG*dG*d[5mC]*dA*dT*kT*kA*kG) [Compound 958767]”, the “YAP1 (% UTC)” value was found to be 6 % UTC.

As to “958772 (antisense k[5mC]*kA*kA*d[5mC]*dA*dA*dA*d[5mC]*dA*dT*dA*dG*dT*kT*kA*k[5mC]) [Compound 958772]”, the “YAP1 (% UTC)” value came to 61 % UTC.

With “958777 (antisense kG*kT*kA*dA*d[5mC]*dT*dG*dT*dT*dT*d[5mC]*dT*dA*kG*kG*kT) [Compound 958777]”, the “YAP1 (% UTC)” value is given as 10 % UTC.

The same data set, now with this note: Table 11; A-431 cells, 5,000 cells per well, free uptake, 2,000 nM oligonucleotide, approx. 48 hours; primer probe set RTS36584; Yap1 mRNA normalized to RIBOGREEN, percent of untreated control.
As to “958758 (antisense k[5mC]*kT*kA*dT*dT*d[5mC]*dA*dG*dT*dG*dA*dT*d[5mC]*kT*kG*k[5mC]) [Compound 958758]”, the “YAP1 (% UTC)” value worked out at 2 % UTC.

On to “958763 (antisense k[5mC]*kA*k[5mC]*dA*dA*dT*dA*d[5mC]*dA*dA*dG*dA*dT*kG*k[5mC]*kA) [Compound 958763]”, for which the “YAP1 (% UTC)” value was 3 % UTC.

Take “958768 (antisense kG*kT*kG*d[5mC]*dA*dA*dG*d[5mC]*dA*dG*dG*dT*dT*k[5mC]*k[5mC]*k[5mC]) [Compound 958768]”: the “YAP1 (% UTC)” value was determined as 17 % UTC.

For the substance “958773 (antisense kA*kG*k[5mC]*dT*dG*dG*dT*dA*dG*dG*dG*d[5mC]*dA*kA*kG*kA) [Compound 958773]”, the “YAP1 (% UTC)” value is given as 43 % UTC.

Still in this data set, the particulars now being: Table 12; A-431 cells, 5,000 cells per well, free uptake, 2,000 nM modified oligonucleotide, approx. 48 hours; RTS36584; normalized to RIBOGREEN; Yap1 mRNA relative to untreated control cells.
“958759 (antisense kG*k[5mC]*k[5mC]*dT*dA*dT*d[5mC]*dG*d[5mC]*d[5mC]*d[5mC]*d[5mC]*dA*kA*kG*k[5mC]) [Compound 958759]”: the “YAP1 (% UTC)” value is given as 61 % UTC.

Regarding “958764 (antisense kT*kG*kG*dG*dT*d[5mC]*dT*d[5mC]*dT*dT*dG*dA*dT*kT*kT*k[5mC]) [Compound 958764]”, the “YAP1 (% UTC)” value turned out to be 34 % UTC.

“958769 (antisense k[5mC]*kA*kT*dT*dG*d[5mC]*d[5mC]*dA*d[5mC]*dG*dA*dT*d[5mC]*kT*kA*kA) [Compound 958769]”: the “YAP1 (% UTC)” value is on record as 36 % UTC.

As for “958774 (antisense kT*kG*k[5mC]*dT*dA*dG*dA*dT*dA*dT*d[5mC]*dG*d[5mC]*k[5mC]*kA*kA) [Compound 958774]”, the “YAP1 (% UTC)” value was determined as 33 % UTC.

The data set is the same for the next values; noted with them: Table 13; A-431 cells, 5,000 cells per well, free uptake, 2,000 nM modified oligonucleotide, approx. 48 hours; RTS36584; normalized to RIBOGREEN; Yap1 mRNA relative to untreated control cells.
As for “958760 (antisense kA*kG*kT*dA*dA*dT*dA*dG*dA*dT*d[5mC]*dT*dA*k[5mC]*kA*kA) [Compound 958760]”, the “YAP1 (% UTC)” value is recorded as 76 % UTC.

Turning to “958765 (antisense kG*kT*kA*d[5mC]*dA*dG*dG*dA*dG*dA*dG*dA*dT*kT*kG*k[5mC]) [Compound 958765]”, the “YAP1 (% UTC)” value is listed as 37 % UTC.

Turning to “958770 (antisense kA*k[5mC]*kA*dG*dA*dG*d[5mC]*dG*dG*dT*dG*d[5mC]*dA*k[5mC]*k[5mC]*k[5mC]) [Compound 958770]”, the “YAP1 (% UTC)” value is given as 64 % UTC.

On to “958775 (antisense kG*kT*k[5mC]*dT*dA*dT*dA*d[5mC]*dG*dG*dG*dA*dG*kA*kT*kT) [Compound 958775]”, for which the “YAP1 (% UTC)” value was found to be 29 % UTC.

For the origin of these results see patent US11214803B2, “Modulators of YAP1 expression” (Ionis Pharmaceuticals, Inc., priority 2019, dated 2022).
